Earlier results, collected in patent US7011849B2, “Second release phase formulation” (Beecham Pharmaceuticals (Pte) Limited, priority 2000, dated 2006).

Settings: in vivo

CC1(C)S[C@@H]2[C@H](NC(=O)[C@H](N)c3ccc(O)cc3)C(=O)N2[C@H]1C(=O)O [amoxicillin]
elimination half-life: about 1.3 hours
